Experimental data: US20190218170A1, “BRANCHED TRIALKYLAMINE PRECURSORS, INTERMEDIATES, PRODUCTS MADE THEREFROM AND PROCESSES OF MANUFACTURE” (priority 2018, published 2019)

Key:
Candida albicans = experiment: Microplate dilution assay MIC/MLC; type: cell-based; details: for MIC < 10%: growth less than 10% of control; for MIC < 50%: growth less than 50% of control; for MLC: minimum lethal concentration
Procedure: (§1) The minimum inhibitory concentration (MIC) and the minimum lethal concentration (MLC) of the chemicals were determined using a microplate dilution assay. Quats were provided as aqueous solutions, while Triclosan and Chloroxylenol were provide as powders which were first dissolved at 5 weight percent in absolute ethanol. A two-fold serial dilution series of each test chemical was prepared in Trypticase Soy Broth at 20% of the standard concentration (TSB20) and in Sabouraud Dextrose Broth at 20% of the standard concentration (SDB20) in 96-well micro-titer plates. A total of 10 dilutions were prepared and four replicate tests were performed for each dilution. […] Control solutions containing only media were included for each plate. Suspensions of Staphylococcus aureus, Escherichia coli, and Candida albicans were prepared from one-day old agar plate cultures in Butterfields Phosphate Diluent to a concentration of approximately 10^7 to 10^8 cells per milliliter. Each test well was inoculated with the diluted culture suspensions at a concentration of 10^3 to 10^4 cells per well and then incubated at 32° C. with shaking at 150 rpm for approximately 24 hours, after which the optical density of each well was determined spectrophotometrically at 600 nm. Wells containing uninoculated media without test chemical were included in each plate as negative controls and, following inoculation, as positive controls.
(§2) Selected wells at or below the MIC were tested for MLC by spotting three microliters from each replicate well onto Trypticase Soy agar for S. aureus and E. coli, or Sabouraud Dextrose agar for C. albicans.

Escherichia coli = experiment: Microplate dilution assay MIC/MLC; type: cell-based; details: for MIC < 10%: growth less than 10% of control, 24 hours, 32° C.; for MIC < 50%: growth less than 50% of control; for MLC: minimum lethal concentration
Procedure: as §1, §2

Staphylococcus aureus = experiment: Microplate dilution assay MIC/MLC; type: cell-based; details: for MIC < 10%: growth less than 10% of control; for MIC < 50%: growth less than 50% of control; for MLC: minimum lethal concentration
Procedure: as §1, §2

[1] = Ready Biodegradability CO2 Evolution Test OECD 301B
Procedure: The biodegradability of the branched aldehyde intermediates of Example 2 (4-ethyl-2-methyloctanal) and Example 25 (2,4-diethyl-2-octenal) were determined by the Ready Biodegradability—CO2 Evolution Test—Degradation of test compound according to OECD Guidelines for Testing of Chemicals CO2 Evolution Test 301B.

[2] = Solubility of N-alkyl-N-methylglucamines in MilliQ water and SLS/SDS solution; type: physicochemical; details: for Solubility in pure MilliQ / Solubility in 10 wt % SLS: heated to 80° C., ultrasonicated, cooled to room temperature; for Solubility in pure MilliQ: pH 9-9.5; for Solubility in 10 wt % SLS: pH 10.8-11.1; for Solubility in 10 wt % SDS: pH 11.8-12.1
Procedure: The solubility of three N-alkyl-N-methylglucamines (i.e., N-(2-ethyl-hexyl)-N-methylglucamine, N-decyl-N-methylglucamine, and N-(4-ethyl-2-methyloctyl)-N-methylglucamine) was investigated in pure MilliQ water and in a 10 wt % sodium lauryl sulfate (SLS) solution. The mixtures were heated to 80° C., ultrasonicated, and cooled to room temperature.

[3] = High-shear foaming of N-alkyl-N-methylglucamines in commercial blender; type: physicochemical; details: 1 wt % test substance in 10 wt % SDS, diluted to 0.05 wt % surfactant
Procedure: The high-shear foaming behavior of linear and branched N-alkyl-N glucamines was investigated, as this can have an impact on their performance in home care applications. […] The solutions were heated to 80° C., ultrasonicated for 1 h, and cooled to room temperature. Finally, the as-obtained solutions were diluted with MilliQ water to obtain a 0.05 wt % surfactant solution. In agreement with the literature on branched hydrophobes, the high-shear foaming tests performed in the commercial blender indicate that the linear N-decyl-N-methylglucamine (IC10 NMG) solution foams relatively more than its branched counterpart solution. For all solutions, the initial foam volume is between 40 and 53 mL. Lauramine oxide (LAO) appears to be foamier than the N-alkyl-N-methylglucamines.

zein protein = test system: zein protein
Text: Amine oxides with linear and branched hydrophobes from Examples 65 and 66 were compared in a screen to predict mildness of surfactants. There is a correlation between the ability of a surfactant to denature a protein and the skin irritation potential of that surfactant. The relationship is believed to result from surfactant binding to proteins like keratin, followed by the denaturation of these proteins, leading to skin irritation. A common screening test involves measuring the amount of zein (a corn protein which is insoluble in water) solubilized by a surfactant solution, the Zein Solubilization Test (Moore et al., 2003 and references therein)
For the test, 0.0750 g of zein protein is transferred into a 1.5 mL centrifuge tube. To this 1.5 mL of 1% surfactant solution is added, mixed, and placed in a 30 C incubator with mild stirring for 30 minutes. After 30 minutes has elapsed, the tube is centrifuged for 30 min at 3600 rpm. The solution is filtered through a pre-weighed 8 micron filter paper, and then dried overnight in a 50° C. oven. The insoluble zein residue is then weighed and the wt % Zein dissolved is calculated using the equation below. Each solution is analyzed in triplicate. The Zein score is normalized to a standard included in each set of tests, in this case LAE10.
% zein dissolved=(total zein added−total zein after drying Total zein added)×100

CCCCCCCCCCCC[N+](C)(C)Cc1ccccc1.[Cl-] [BAC-12 linear]
MIC < 10% (Candida albicans): 0.0016 Weight percent | MIC < 50% (Candida albicans): 0.00078 Weight percent | MLC (Candida albicans): 0.0016 Weight percent | MIC < 10% (Escherichia coli): 0.00078 Weight percent | MIC < 50% (Escherichia coli): 0.00078 Weight percent | MLC (Escherichia coli): 0.00078 Weight percent | MIC < 10% (Staphylococcus aureus): 0.0002 Weight percent | MIC < 50% (Staphylococcus aureus): 0.0002 Weight percent | MLC (Staphylococcus aureus): 0.0002 Weight percent

Cc1cc(O)cc(C)c1Cl [Chloroxylenol]
MIC < 10% (Candida albicans): 0.0083 Weight percent | MIC < 50% (Candida albicans): 0.0083 Weight percent | MLC (Candida albicans): >0.0083 Weight percent | MIC < 10% (Escherichia coli): >0.0083 Weight percent | MIC < 50% (Escherichia coli): >0.0083 Weight percent | MLC (Escherichia coli): >0.0083 Weight percent | MIC < 10% (Staphylococcus aureus): 0.0042 Weight percent | MIC < 50% (Staphylococcus aureus): 0.0042 Weight percent | MLC (Staphylococcus aureus): >0.0083 Weight percent

CCCCC(CC)CC(CC)C[N+](C)(C)Cc1ccccc1.[Cl-] (stereo not shown) [BAC-b12, N-benzyl-2,4-diethyl-N,N-dimethyloctan-1-aminium chloride]
MIC < 10% (Candida albicans): 0.0063 Weight percent | MIC < 50% (Candida albicans): 0.0063 Weight percent | MLC (Candida albicans): 0.0063 Weight percent | MIC < 10% (Escherichia coli): 0.0063 Weight percent | MIC < 50% (Escherichia coli): 0.0063 Weight percent | MLC (Escherichia coli): 0.0063 Weight percent | MIC < 10% (Staphylococcus aureus): 0.00039 Weight percent | MIC < 50% (Staphylococcus aureus): 0.00039 Weight percent | MLC (Staphylococcus aureus): 0.00078 Weight percent

CCCCC(CC)CC(C)C=O (stereo not shown) [Example 2, 4-ethyl-2-methyloctanal]
Biodegradation (%) ([1]; Day 0): 0% | Biodegradation (%) ([1]; Day 2): 0% | Biodegradation (%) ([1]; Day 6): 15% | Biodegradation (%) ([1]; Day 7): 21% | Biodegradation (%) ([1]; Day 9): 31% | Biodegradation (%) ([1]; Day 14): 47% | Biodegradation (%) ([1]; Day 19): 54% | Biodegradation (%) ([1]; Day 23): 56% | Biodegradation (%) ([1]; Day 28): 57% | Biodegradation (%) ([1]; Day 29 (first line)): 57% | Biodegradation (%) ([1]; Day 29 (second line)): 61%

CCCCC(CC)CC(C)CN(C)C[C@H](O)[C@@H](O)[C@H](O)[C@H](O)CO (stereo partly shown) [N-(4-ethyl-2-methyloctyl)-N-methylglucamine]
Solubility in pure MilliQ [2]: <1000 ppm | Solubility in 10 wt % SLS [2]: >1000 ppm | Solubility in 10 wt % SDS [2]: ≥1%

CCCCCCCCCCN(C)C[C@H](O)[C@@H](O)[C@H](O)[C@H](O)CO [N-decyl-N-methylglucamine]
Solubility in pure MilliQ [2]: <1000 ppm | Solubility in 10 wt % SLS [2]: >1000 ppm | Solubility in 10 wt % SDS [2]: ≥1% | Foam volume after 5 seconds stirring at speed 1 [3]: 50 mL | Foam volume after 5 minutes settling [3]: 49 mL

CCCCC(CC)CN(C)C[C@H](O)[C@@H](O)[C@H](O)[C@H](O)CO (stereo partly shown) [N-(2-ethyl-hexyl)-N-methylglucamine, N-(2-ethylhexyl)-N-methylglucamine]
Solubility in 10 wt % SLS [2]: >1000 ppm | Solubility in 10 wt % SDS [2]: ≥1%

Sodium lauryl ether sulfate [SLES]
Zein score - normalized to LAE10 (zein protein): 3.488

CCCCC(CC)CC(C=O)CC (stereo not shown) [Example 25, 2,4-diethyloctanal]
Biodegradation (%) ([1]; Day 0): 0% | Biodegradation (%) ([1]; Day 2): 0% | Biodegradation (%) ([1]; Day 6): 0% | Biodegradation (%) ([1]; Day 7): 9% | Biodegradation (%) ([1]; Day 9): 27% | Biodegradation (%) ([1]; Day 14): 48% | Biodegradation (%) ([1]; Day 19): 53% | Biodegradation (%) ([1]; Day 23): 53% | Biodegradation (%) ([1]; Day 28): 55% | Biodegradation (%) ([1]; Day 29 (first line)): 55% | Biodegradation (%) ([1]; Day 29 (second line)): 57%

CC(=O)[O-].[Na+] [sodium acetate, reference compound]
Biodegradation (%) ([1]; Day 0): 0% | Biodegradation (%) ([1]; Day 2): 32% | Biodegradation (%) ([1]; Day 6): 52% | Biodegradation (%) ([1]; Day 7): 54% | Biodegradation (%) ([1]; Day 9): 60% | Biodegradation (%) ([1]; Day 14): 66% | Biodegradation (%) ([1]; Day 19): 69% | Biodegradation (%) ([1]; Day 23): 71% | Biodegradation (%) ([1]; Day 28): 72% | Biodegradation (%) ([1]; Day 29 (first line)): 74% | Biodegradation (%) ([1]; Day 29 (second line)): 78%

CCCCC(CC)CN(C)C[C@H](O)[C@@H](O)[C@H](O)[C@H](O)CO (stereo partly shown) [bC10 NMG]
Foam volume after 5 seconds stirring at speed 1 [3]: 40 mL | Foam volume after 5 minutes settling [3]: 38 mL

Oc1cc(Cl)ccc1Oc1ccc(Cl)cc1Cl [Triclosan]
MIC < 10% (Candida albicans): 0.0016 Weight percent | MIC < 50% (Candida albicans): 0.0016 Weight percent | MLC (Candida albicans): >0.0016 Weight percent | MIC < 10% (Escherichia coli): 0.00010 Weight percent | MIC < 50% (Escherichia coli): 0.00010 Weight percent | MLC (Escherichia coli): 0.00010 Weight percent | MIC < 10% (Staphylococcus aureus): 0.00002 Weight percent | MIC < 50% (Staphylococcus aureus): 0.00002 Weight percent | MLC (Staphylococcus aureus): 0.00003 Weight percent
